{
  "source": "patent US20250276994A1",
  "about": "“CAP ANALOG FOR THE 5'-END OF EUKARYOTIC MESSENGER RNAS” (WESTFÄLISCHE WILHELMS-UNIVERSITÄT, priority 2021, published 2025)",
  "molecular_target": "T1, T7 RNA polymerase (Escherichia phage T7, UniProt P00573)",
  "T1 construct": "purchased Thermo Scientific",
  "T1 sequence (P00573 whole entry)": "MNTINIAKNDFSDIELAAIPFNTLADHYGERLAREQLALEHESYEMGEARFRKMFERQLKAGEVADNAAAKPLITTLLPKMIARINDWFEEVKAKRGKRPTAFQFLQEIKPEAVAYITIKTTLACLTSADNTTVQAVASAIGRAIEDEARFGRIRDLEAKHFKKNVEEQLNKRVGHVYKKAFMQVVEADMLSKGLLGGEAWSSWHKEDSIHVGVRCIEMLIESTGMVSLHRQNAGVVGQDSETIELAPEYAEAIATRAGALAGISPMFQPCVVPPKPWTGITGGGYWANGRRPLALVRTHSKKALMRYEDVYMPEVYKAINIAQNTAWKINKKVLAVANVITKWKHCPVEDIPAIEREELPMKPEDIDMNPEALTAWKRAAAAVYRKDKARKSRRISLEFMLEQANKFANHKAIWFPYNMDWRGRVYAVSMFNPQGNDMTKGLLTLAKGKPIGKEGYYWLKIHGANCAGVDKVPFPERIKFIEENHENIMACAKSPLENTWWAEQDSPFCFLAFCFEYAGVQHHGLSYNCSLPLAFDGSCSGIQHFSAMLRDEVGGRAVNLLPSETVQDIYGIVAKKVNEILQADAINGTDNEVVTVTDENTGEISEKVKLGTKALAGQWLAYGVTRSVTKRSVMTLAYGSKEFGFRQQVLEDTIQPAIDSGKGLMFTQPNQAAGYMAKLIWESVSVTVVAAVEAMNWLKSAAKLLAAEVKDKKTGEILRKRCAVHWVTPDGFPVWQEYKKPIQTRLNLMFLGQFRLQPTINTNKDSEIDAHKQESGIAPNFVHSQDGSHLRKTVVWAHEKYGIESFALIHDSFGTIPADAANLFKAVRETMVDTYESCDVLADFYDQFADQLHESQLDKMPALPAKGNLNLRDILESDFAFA",
  "test": "In vitro transcription of GLuc mRNA with cap analogs, gel analysis",
  "type": "biochemical",
  "experimental": "First, the DNA sequence coding for eGFP, Firefly luciferase (FLuc) or Gaussia luciferase (GLuc) mRNAs were amplified from pmRNA-vectors containing the respective sequence. After purification (NucleoSpin Gel and PCR Clean-up, Macherey-Nagel), the resulting linear dsDNA was used as template (200 ng) for in vitro T7 transcription performed in transcription buffer (40 mM Tris/HCl, 25 mM NaCl, 8 mM MgCl2, 2 mM spermidine(HCl)3) by adding either a A/C/UTP (0.5 mM) mix or a mix with modified nucleotides (A/m^5C/N^1-methylpseudo-UTP) (0.5 mM), GTP (0.25 mM), GpppG, m7GpppG, ApppG, DMNB or NPOM cap analog (1 mM), T7 RNA polymerase (50 U) (Thermo Scientific) and pyrophosphatase (0.1 U) (Thermo Scientific) for 4 h at 37° C. Remaining DNA template was digested in presence of 2 U DNase I for 1 h at 37° C. and then mRNAs were purified using the RNA Clean & Concentrator™-5 Kit (Zymo Research). To digest non-capped RNAs, 10 U of the RNA 5′-polyphosphatase (Epicentre) as well as the supplied reaction buffer were added to purified mRNAs. After an incubation period of 30 min at 37° C., 0.5 U of the 5′-3′ exoribonuclease XRN1 (NEB) and MgCl2 (5 mM) were added. The reaction mixture was incubated for 60 min at 37° C. Subsequently, capped mRNAs were purified using the RNA Clean & Concentrator™-5 Kit (Zymo Research).\nThe photocleavable 5′-cap analogs of formulas (12) and (18) were used for in vitro transcription of GLuc mRNA as described above and analysed via agarose gel electrophoresis.\n“M” denotes Riboruler low range RNA ladder.",
  "data": [
    {"smiles": "COc1cc(COC(=O)Nc2nc3c(c(=O)[nH]2)[n+](C)cn3[C@@H]2O[C@H](COP(=O)(O)CP(=O)(O)OP(=O)(O)OC[C@H]3O[C@@H](n4cnc5c(=O)[nH]c(N)nc54)C(O)C3O)C(O)C2O)c([N+](=O)[O-])cc1OC", "note": "(stereo partly shown) [compound 12, P1-(N^2-(4,5-Dimethoxy-2-nitrobenzyl)oxycarbonyl-7-methylguanosin-5′-yl)-P3-guanosin-5′-yl 1,2-methylenetriphosphate]", "values": [
      {"measurement": "incorporation of cap analog into RNA", "result": "incorporated into the RNA"}
    ]}
  ]
}
